Values of other authors, collected in article PMC9332635 (Journal of Food and Drug Analysis, 2017).

Columns and labels:
[1] = method validation study of isosteviol
[2] = tested on: HBsAg secretion in HBV-transfected cell-lines

Row | Structure (SMILES) | Long-term stability [1] [days] | IC50 for inhibiting HBsAg secretion [2] [µg/mL]
1 | C[C@@]12CC[C@@H]3[C@@](CC[C@H]4[C@@]3(C)CCC[C@@]4(C)C(=O)O)(CC1=O)C2 [isosteviol] | 61 | –
2 | Nc1ccn([C@@H]2CS[C@H](CO)O2)c(=O)n1 [lamivudine] | – | 49.13
